The record followed here is ChEMBL document CHEMBL1201862, “PubChem BioAssay data set” (2004).

Calls of active or inactive are those of the source.

Experiment [1] has as its target T1, Microphthalmia-associated transcription factor (Homo sapiens, UniProt O75030).
T1 sequence (O75030 whole entry): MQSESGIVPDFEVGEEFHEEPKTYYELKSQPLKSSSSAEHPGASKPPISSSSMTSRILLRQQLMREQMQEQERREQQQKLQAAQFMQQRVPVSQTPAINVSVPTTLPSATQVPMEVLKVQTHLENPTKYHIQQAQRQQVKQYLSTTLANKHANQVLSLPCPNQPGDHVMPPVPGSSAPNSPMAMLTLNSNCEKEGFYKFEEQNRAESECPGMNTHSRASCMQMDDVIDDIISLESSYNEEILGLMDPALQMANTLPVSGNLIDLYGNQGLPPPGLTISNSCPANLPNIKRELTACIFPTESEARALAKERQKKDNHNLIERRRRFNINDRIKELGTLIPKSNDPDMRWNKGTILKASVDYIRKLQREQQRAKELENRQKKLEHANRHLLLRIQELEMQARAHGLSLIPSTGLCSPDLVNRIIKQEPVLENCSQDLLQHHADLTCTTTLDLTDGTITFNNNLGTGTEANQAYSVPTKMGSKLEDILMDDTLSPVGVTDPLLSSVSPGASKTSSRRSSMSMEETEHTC
Put plainly: TRPM1 promoter luciferase signal decrease, dose response, MITF inhibitor project, cell-based, SK-MEL-5, cherry-picked, set 3 (AID 493073).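 Further: SK-MEL-5 melanoma cells with luciferase driven by the MITF target TRPM1 promoter.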 The experiment is classed as functional.

The next experiment concerns A-375. Put plainly: MITF: Counter assay: A375 proliferation Measured in Cell-Based System Using Plate Reader - 2084-03_Inhibitor_Dose_DryPowder_Activity. [Related pubchem assays (depositor defined):AID488944]. As to conditions: Homo sapiens. The experiment is classed as functional.
The target in a further experiment is NS3 (Hepatitis C virus, UniProt A3EZJ3). Put plainly: PubChem AID 2173. Also on record: species or system Hepacivirus hominis.
The subject of another experiment is Vero. In words: Vero cell cytotoxicity, cytotoxicity control for flavivirus capping enzyme inhibitors (AID 588742). The experiment is classed as functional. As to conditions: Chlorocebus sabaeus.
The nature of experiment [2]: Late-stage probe development counterscreen for inhibitors of the Hepatitis C Virus non-structural protein 3 helicase (NS3): luminescence-based cell-based dose response assay to determine whether compounds that inhibit replication of HCV RNA replicon are cytotoxic. [Related pubchem assays (depositor defined):AID1800, AID1830, AID1845, AID1943, AID1945, AID2172, AID2173, AID2474, AID2476]. The experiment is classed as functional.

In another experiment the target is Genome polyprotein (dengue virus type 2, UniProt P29990). Put plainly: Dengue-2 NS5 methyltransferase inhibitors, primary screen, biochemical, confirmation dose response (AID 588689). The experiment is classed as functional.
Experiment [3] deals with T2, Low molecular weight phosphotyrosine protein phosphatase (Homo sapiens, UniProt P24666).
T2 sequence (P24666 whole entry): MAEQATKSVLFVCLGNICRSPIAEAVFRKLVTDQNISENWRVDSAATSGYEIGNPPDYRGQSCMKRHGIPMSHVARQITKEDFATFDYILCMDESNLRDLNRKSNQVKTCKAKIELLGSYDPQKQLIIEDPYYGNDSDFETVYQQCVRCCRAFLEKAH
The class given is functional. The note with it: read-out: IC50_Mean.

The target in experiment [4] is T3, Probable nicotinate-nucleotide adenylyltransferase (Staphylococcus aureus (strain N315), UniProt P65502). The class given is functional, Staphylococcus aureus subsp. aureus N315.
Experiment [5] concerns the target T3, Probable nicotinate-nucleotide adenylyltransferase. The experiment is classed as functional, Staphylococcus aureus subsp. aureus N315. The note with it: read-out: IC50_Mean.
Experiment [6] has as its target T2, Low molecular weight phosphotyrosine protein phosphatase. The experiment is classed as functional. The note with it: read-out: IC50_Mean. This is another data set of the same source.
Experiment [7] has as its target NAD-dependent protein deacylase sirtuin-5, mitochondrial (Homo sapiens, UniProt Q9NXA8). In words: SIRT5 desuccinylase inhibitors, dose response, biochemical, fluorescence imaging, cherry-pick, set 5 (AID 720591).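 Further: desuccinylation of succinyl peptide AMC substrate read as fluorescence after trypsin release; potency of inhibitors that lower fluorescence and may act on trypsin instead.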
In the next experiment the test system is Candida albicans. In words: growth inhibition of azole-resistant C. albicans, dose response, CaCi-8 strain, Alamar Blue, dry powder, set 2 (AID 488909). The class given is functional, organism-based. On the technique in general: The colour change of resazurin is a common sign of viable cells or microbes.
In experiment [8] the test system is Streptococcus sp. 'group A'. In words: growth inhibition of control SK(-) GAS strain, dose response, counter-screen for streptokinase expression inhibitor project, luminescence, kanamycin, BacTiterGlo, confirmation (AID 1900). The experiment is classed as functional, organism-based. A general note: Counterscreens check selectivity or assay interference.
In experiment [9] the target is Induced myeloid leukemia cell differentiation protein Mcl-1 (Homo sapiens, UniProt Q07820). In words: MCL1-BIM BH3 interaction inhibitors, dose response, biochemical, fluorescence polarization, BIM-BH3 peptide, 1536-well (AID 2217). (In general: In fluorescence polarisation assays a small probe gives low polarisation when free and higher when bound to something large.)

A further experiment concerns the target Bcl-2-like protein 1 (Homo sapiens, UniProt Q07817). Put plainly: BCL-XL inhibitors, dose response, selectivity assay for MCL1 inhibitor project, biochemical, fluorescence polarization, 1536-well (AID 2218).
The subject of the next experiment is Streptococcus. In words: Group A Streptococcus viability loss, dose response, counter-screen for streptokinase expression inhibitor project, luminescence, BacTiterGlo (AID 1915).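 Further: potency for reduction of bacterial viability or growth.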 The class given is functional, organism-based.
The next experiment deals with Salmon testes DNA. Put plainly: DNA intercalators displacing acridine orange, dose response, artefact control for KSHV LANA DNA-binding inhibitor project, biochemical, fluorescence polarization, cherry-picked samples, set 2 (AID 504727). Also on record: species or system Salmonidae.
A further experiment deals with T4, ORF 73 (Human herpesvirus 8, UniProt O40947).
T4 sequence (O40947 whole entry): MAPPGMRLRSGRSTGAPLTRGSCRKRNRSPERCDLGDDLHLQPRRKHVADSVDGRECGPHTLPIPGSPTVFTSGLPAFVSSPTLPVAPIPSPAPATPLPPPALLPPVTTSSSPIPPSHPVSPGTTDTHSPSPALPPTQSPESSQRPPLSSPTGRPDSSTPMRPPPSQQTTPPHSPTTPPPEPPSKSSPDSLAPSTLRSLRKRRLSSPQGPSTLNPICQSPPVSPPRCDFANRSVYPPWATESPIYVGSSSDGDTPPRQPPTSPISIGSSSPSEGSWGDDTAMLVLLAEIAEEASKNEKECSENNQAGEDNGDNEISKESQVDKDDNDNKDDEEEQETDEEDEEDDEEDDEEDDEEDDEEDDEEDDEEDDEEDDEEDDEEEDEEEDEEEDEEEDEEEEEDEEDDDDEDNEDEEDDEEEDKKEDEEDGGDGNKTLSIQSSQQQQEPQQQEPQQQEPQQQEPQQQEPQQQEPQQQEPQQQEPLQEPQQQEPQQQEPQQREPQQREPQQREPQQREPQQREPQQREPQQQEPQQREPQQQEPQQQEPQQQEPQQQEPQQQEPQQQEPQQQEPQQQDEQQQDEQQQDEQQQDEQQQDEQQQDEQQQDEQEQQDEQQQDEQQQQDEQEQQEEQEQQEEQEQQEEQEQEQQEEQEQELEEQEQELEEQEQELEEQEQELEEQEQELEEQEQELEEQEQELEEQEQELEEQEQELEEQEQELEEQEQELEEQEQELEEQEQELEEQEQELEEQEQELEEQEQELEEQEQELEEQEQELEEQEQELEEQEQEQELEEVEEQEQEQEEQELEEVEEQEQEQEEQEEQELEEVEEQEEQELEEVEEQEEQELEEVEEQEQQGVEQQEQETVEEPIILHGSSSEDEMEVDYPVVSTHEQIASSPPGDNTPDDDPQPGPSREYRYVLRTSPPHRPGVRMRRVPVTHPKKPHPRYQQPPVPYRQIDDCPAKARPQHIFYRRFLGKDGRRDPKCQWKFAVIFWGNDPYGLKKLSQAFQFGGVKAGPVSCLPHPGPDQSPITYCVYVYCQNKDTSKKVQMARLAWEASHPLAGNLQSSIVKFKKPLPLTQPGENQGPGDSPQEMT
Put plainly: inhibitors of C-LANA binding to LBS DNA, dose response, biochemical, fluorescence polarization, cherry-picked samples (AID 504725).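 Further: fluorescence polarization of a labeled DNA duplex reporting LANA DNA binding; potency is for inhibitors that block LANA binding to the DNA.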 Also on record: species or system Human gammaherpesvirus 8.

Experiment [10] has as its target T5, Rac GTPase-activating protein 1 (Homo sapiens, UniProt Q9H0H5).
T5 sequence (Q9H0H5 whole entry): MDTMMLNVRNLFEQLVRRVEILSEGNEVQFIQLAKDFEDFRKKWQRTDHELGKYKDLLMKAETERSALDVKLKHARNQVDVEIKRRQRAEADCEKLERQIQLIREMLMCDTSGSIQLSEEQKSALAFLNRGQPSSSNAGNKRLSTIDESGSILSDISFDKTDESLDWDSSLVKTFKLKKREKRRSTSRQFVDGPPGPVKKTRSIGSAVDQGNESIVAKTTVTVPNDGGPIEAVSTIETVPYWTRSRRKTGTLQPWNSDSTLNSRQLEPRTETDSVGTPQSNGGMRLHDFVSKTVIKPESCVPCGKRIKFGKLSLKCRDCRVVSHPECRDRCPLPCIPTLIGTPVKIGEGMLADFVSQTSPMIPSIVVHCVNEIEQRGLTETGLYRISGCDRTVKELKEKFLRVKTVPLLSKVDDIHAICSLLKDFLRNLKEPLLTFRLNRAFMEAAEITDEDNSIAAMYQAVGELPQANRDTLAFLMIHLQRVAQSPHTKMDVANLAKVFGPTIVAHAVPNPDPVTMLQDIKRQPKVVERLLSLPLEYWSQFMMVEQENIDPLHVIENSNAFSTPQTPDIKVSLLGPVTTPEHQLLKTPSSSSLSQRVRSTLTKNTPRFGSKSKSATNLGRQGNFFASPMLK
Put plainly: MgcRacGAP GTPase-activating activity inhibitors, confirmation, biochemical, ADP Hunter fluorescence, primary and confirmatory (AID 624330). The experiment is classed as functional.

A short description of experiment [11]: inhibitors of HIV Env-driven cell fusion, dose response, cherry-pick (AID 652057). The class given is functional, cell-based.
A short description of experiment [12]: ZM109 Env clade C HIV-1 fusion inhibitors, dose response, HeLa effector, CEM target cells, luciferase, cherry-pick (AID 652058). The experiment is classed as functional, cell-based.
A short description of experiment [13]: off-target signal loss in HeLa-CEM21 co-culture – HeLa F-luc CTL cells, cherry-picked, counter-screen for HIV-1 Env fusion inhibitor project, dose response (AID 652040).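 Further: potency for signal decrease marking cytotoxic or nonspecific inhibition.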 The class given is functional, cell-based.
Experiment [14] can be described thus: inhibitors of clade B AD8 Env fusion, dose response, cell-based, cherry-pick (AID 652062).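 Further: luciferase signal from cell-cell fusion driven by HIV-1 clade B AD8 Env; potency is for inhibitors of fusion seen as a drop in luminescence.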 The experiment is classed as functional.
A short description of experiment [15]: THP-1 cell cytotoxicity, dose response, cytotoxicity control for Vif-APOBEC3G degradation inhibitor project, THP-1 cells (AID 1117359). The experiment is classed as functional. As to conditions: Human immunodeficiency virus 1, THP-1.
Experiment [16] has as its system Escherichia coli. Put plainly: microbe, parasite or virus in culture.
Experiment [17] has as its system Escherichia coli. In words: microbe, parasite or virus in culture. The source holds these as a separate data set.

Sequence of NS3 (A3EZJ3 whole entry): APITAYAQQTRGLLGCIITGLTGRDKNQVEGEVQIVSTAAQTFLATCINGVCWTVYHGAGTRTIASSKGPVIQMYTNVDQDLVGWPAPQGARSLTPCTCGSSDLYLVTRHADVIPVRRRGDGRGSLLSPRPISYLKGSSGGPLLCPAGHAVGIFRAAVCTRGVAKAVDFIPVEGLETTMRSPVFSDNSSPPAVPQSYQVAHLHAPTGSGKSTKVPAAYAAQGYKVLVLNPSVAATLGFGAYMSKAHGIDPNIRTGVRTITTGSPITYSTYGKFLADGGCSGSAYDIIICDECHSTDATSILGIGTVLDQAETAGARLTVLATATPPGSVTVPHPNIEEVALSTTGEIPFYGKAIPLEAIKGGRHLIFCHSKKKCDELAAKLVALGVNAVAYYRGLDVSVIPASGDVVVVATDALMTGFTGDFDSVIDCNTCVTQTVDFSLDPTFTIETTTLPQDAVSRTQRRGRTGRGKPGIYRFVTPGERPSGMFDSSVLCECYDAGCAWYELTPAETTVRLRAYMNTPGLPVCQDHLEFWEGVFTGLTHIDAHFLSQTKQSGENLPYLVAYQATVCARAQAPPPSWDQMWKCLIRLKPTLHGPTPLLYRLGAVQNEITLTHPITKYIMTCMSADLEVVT
T3 sequence (P65502 whole entry): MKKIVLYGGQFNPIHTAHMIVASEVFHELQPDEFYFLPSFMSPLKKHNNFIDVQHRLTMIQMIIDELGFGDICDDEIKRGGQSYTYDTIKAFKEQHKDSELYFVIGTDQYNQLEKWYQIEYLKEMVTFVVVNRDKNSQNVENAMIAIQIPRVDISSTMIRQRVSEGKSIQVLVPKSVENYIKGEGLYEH
Sequence of NAD-dependent protein deacylase sirtuin-5, mitochondrial (Q9NXA8 whole entry): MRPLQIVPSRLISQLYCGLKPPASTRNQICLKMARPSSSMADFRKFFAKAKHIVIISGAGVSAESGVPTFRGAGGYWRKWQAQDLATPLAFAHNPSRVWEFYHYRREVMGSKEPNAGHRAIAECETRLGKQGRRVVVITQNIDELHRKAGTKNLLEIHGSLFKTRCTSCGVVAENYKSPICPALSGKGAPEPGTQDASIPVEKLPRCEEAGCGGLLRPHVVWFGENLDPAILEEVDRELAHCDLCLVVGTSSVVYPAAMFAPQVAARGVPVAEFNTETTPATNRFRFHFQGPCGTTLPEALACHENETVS
Sequence of Genome polyprotein (P29990 2492-3391 limits assumed): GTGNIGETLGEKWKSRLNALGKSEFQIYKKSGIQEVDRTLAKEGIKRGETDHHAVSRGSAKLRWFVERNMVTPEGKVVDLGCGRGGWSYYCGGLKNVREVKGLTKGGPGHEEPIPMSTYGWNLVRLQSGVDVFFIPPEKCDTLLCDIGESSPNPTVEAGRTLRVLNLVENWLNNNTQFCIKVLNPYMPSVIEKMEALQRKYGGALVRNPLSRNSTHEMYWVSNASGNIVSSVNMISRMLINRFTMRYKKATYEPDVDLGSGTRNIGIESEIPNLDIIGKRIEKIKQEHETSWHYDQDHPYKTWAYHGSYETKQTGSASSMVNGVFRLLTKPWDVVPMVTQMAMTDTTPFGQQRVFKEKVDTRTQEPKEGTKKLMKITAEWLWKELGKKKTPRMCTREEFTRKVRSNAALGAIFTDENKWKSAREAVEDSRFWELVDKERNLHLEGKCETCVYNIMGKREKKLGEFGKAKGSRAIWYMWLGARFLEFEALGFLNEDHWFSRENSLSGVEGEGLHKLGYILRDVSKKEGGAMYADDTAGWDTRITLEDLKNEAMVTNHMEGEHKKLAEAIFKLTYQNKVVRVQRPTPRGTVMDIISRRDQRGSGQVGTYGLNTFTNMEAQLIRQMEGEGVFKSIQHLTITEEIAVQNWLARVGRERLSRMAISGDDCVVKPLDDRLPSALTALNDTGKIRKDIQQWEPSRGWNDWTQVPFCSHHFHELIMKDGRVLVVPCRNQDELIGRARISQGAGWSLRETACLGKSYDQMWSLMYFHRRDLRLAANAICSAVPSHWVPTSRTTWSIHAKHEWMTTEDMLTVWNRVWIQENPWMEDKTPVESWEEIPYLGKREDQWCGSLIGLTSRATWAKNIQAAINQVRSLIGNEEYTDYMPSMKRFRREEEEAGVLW
Sequence of Induced myeloid leukemia cell differentiation protein Mcl-1 (Q07820 whole entry): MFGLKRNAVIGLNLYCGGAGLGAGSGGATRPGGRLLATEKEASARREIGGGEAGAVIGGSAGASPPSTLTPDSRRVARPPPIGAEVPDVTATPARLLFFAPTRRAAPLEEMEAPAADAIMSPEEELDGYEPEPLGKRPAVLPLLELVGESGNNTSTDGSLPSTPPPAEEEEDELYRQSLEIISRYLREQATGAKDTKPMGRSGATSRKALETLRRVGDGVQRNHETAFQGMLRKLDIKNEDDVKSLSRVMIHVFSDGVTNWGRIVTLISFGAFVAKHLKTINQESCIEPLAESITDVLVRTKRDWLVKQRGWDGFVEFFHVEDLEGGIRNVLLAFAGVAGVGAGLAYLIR
Sequence of Bcl-2-like protein 1 (Q07817 whole entry): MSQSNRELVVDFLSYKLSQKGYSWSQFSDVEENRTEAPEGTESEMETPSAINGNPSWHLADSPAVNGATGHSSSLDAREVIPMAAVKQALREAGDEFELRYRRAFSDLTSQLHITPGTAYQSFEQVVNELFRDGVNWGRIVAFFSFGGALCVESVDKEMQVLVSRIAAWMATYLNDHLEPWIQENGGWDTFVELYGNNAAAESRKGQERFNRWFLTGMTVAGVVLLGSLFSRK

With `CC(C)(C)c1ccc(OCCCNCc2ccccc2)cc1`, the results for the half-maximal activity concentration (AC50) (in [1]; in the experiment with A-375) were 18.4 µM (active) and 29.7 µM (active), respectively.

Take `Cc1cc(N2C(=O)C(O)=C(C(=O)c3ccc(C)o3)C2c2ccc(OCc3ccccc3)cc2)no1` (configuration not stated): the IC50 on NS3 was 1.74 µM (active); on Genome polyprotein it was > 100 µM (active); in experiment [3], > 80 µM (inactive); in experiment [4], 8.93 µM (active); in experiment [5], 28.9 µM (active); in [6], 2.98 µM (active). Moreover, the CC50 was > 40 µM (active) with Vero and > 100 µM (inactive) in experiment [2]. Besides, the AC50 in experiment [7] is > 30 µM (inactive).

`COc1cccc2c(N3CCN(C(=O)c4ccc(Cl)cc4)CC3)cc(C)nc12`: the AC50 with Candida albicans is > 260 µM (inactive).

For the molecule `CN(C)c1ccc(O)c2c1CC1CC3[C@@H](N(C)C)C(O)=C(C(N)=O)C(=O)[C@]3(O)C(O)=C1C2=O` (some centres not stated), the concentration for a half-maximal effect (EC50) in experiment [8] is 0.079 µM (active); in the experiment with Streptococcus, 0.173 µM (active). For the same molecule, the IC50 against NS3 was > 109 µM (not active); in experiment [9] it was 9.39 µM (active); on Bcl-2-like protein 1 it was > 109 µM (not active); in experiment [10] it was 120 µM (active). Besides, the half-maximal activity concentration (AC50) was 46.2 µM (active) with Salmon testes DNA; 25.6 µM (active) on ORF 73; < 0.26 µM (active) in experiment [11]; < 0.26 µM (active) in [12]; < 0.26 µM (active) in experiment [13]; < 0.26 µM (active) in [14]. Also, the figures for the AC50 in the experiment on Escherichia coli [16] and in the experiment with Escherichia coli [17] were 11.2 µM (active) and 1.06 µM (active), respectively. In addition, in [15], the CC50 was > 40 µM (active).

The term AC50 denotes the midpoint of the concentration-response curve, whichever way the signal moves. Broadly, the CC50 is the concentration giving 50% cytotoxicity. In general, EC50 refers to the concentration needed to bring the measured effect to its halfway point.
